# Measured values taken from patent US20190038667A1, “APPLICATION OF FULLERENE/METAL-FULLERENE FOR PREPARING PHARMACEUTICAL PRODUCT” (BEIJING FU NA KANG BIOTECHNOLOGY CO., LTD., priority 2016, published 2019).
# Where two headings read alike, the source gives them in different places.
# How the values were obtained:
# [1] = system: ICR mice; experiment: Effects of Olive-C60 on blood biochemical indexes in the second course (serum); assay type: in vivo; settings: 18th day, versus blank control group
# Experimental: (§1) Animal models: ICR mice aged 4-5 weeks were selected and assigned randomly into 5 groups with 6 mice per group.
# (§2) The second course started 20 days after the day when the first course was initiated and mice were basically recovered. In other words, the 21st day of the first course was marked as the first day of the second course. Thereafter, intraperitoneal injection of CTX was conducted once a day for 5 consecutive days; and Olive-C60 or olive was administered intragastrically or intraperitoneally. 5 days later, no drug was given; and only observation or sampling was conducted.
# Effects of Olive-C60 on blood biochemical indexes in the second course on an intravital level: On the 18th day of the second course of the experiment, whole blood was taken from orbits, serums were obtained by centrifugation, and blood biochemical indexes were tested.
# [2] = system: ICR mice; settings: second course
# Experimental: as §1
# 100 μL of normal saline was administered intragastrically so as to eliminate the difference influenced by intragastric stimulation on mice.
# (§3) Blank control group: The CTX solution injected in the experimental group was replaced with equal volumes of normal saline, and normal saline of the volume equal to 100 μL was administered intragastrically or intraperitoneally to replace Olive-C60 or olive oil.
# as §2
# Effects of Olive-C60 on myelosuppression in the second course on an intravital level: blood (13 μl) was taken from orbits of mice on the 4th day, the 7th day, the 10th day and the 17th day of the second course respectively, and was placed in a 3 ml centrifuge tube, and the blood routine examination was conducted using a blood cell automatic analyzer, wherein the main indexes related to myelosuppression are white blood cell counts (WBC), platelet counts (PLT), red blood cell counts (RBC) and hemoglobin determination (HGB). Meanwhile, changes in the weight of mice were monitored.
# [3] = system: ICR mice; experiment: Influence of GFNC on therapeutic effects of CTX on tumors and toxic experiment
# Experimental: Blank control group: The injected drugs in the experimental groups were replaced with equal volumes of normal saline.
# Metallofullerene derivative (GFNC) experimental group: Mice were injected intravenously with a GFNC solution at a dosage of 0.04 mmol of Gd^3+/kg of body weight of mice.
# CTX+GFNC experimental group: Mice were injected intraperitoneally with a CTX solution at a dosage of 60 mg/kg of body weight of mice, and GFNC solution was injected intravenously at a dosage of 0.04 mmol of Gd^3+/kg of body weight of mice.
# Injection of drugs was initiated on the 7th day after tumor inoculation, which was marked as the first day of the experiment. Intraperitoneal injection of CTX or intravenous injection of GFNC was conducted once a day for 5 consecutive days, and weights of mice and tumor diameters were measured every two days; thereafter, on the 17th day, mice were fetched and their eye balls were removed, and blood was taken respectively from their orbits; then, the blood was placed in a 5 ml centrifuge tube where it was centrifuged for 15 minutes at a rotational speed of 3,500 rpm; after that, a resultant serum was transferred into a 200 μL centrifuge tube, and blood biochemical indexes (e.g., ALT, ALP, AST, BUN, LDH and UA) of the mice were detected in a blood biochemical instrument; after mice were sacrificed by cervical dislocation, their main tissues and organs (hearts, livers, spleens, lungs and kidneys) were taken and weighed, and were then soaked in a 4% formalin solution; thereafter, histopathological section was conducted, and then, H&E staining was conducted. The blank control group, the cyclophosphamide (CTX) experimental group and the metallofullerene experimental group (GFNC) were processed in the same way for comparison.
# [4] = system: ICR mice; experiment: Protection on myelosuppression caused by CTX in H22 tumor mice (blood routine examination); assay type: in vivo
# Experimental: Blank control group: The drugs injected either intragastrically or intraperitoneally in the experimental groups were replaced with equal volumes of normal saline.
# GFNC experimental group: Mice were injected with a GFNC aqueous solution (1 mM) via caudal veins at a dosage of 0.004 mmol of GFNC/kg of body weight of mice.
# CTX+GFNC experimental group: Mice were injected intraperitoneally with a CTX solution at a dosage of 60 mg/kg of body weight of mice, and GFNC solution was injected intravenously at a dosage of 0.004 mmol of GFNC/kg of body weight of mice.
# Injection of drugs was initiated on the 7th day after tumor inoculation, which was marked as the first day of the experiment. Intraperitoneal injection of CTX or intravenous injection of GFNC was conducted once a day for 5 consecutive days; thereafter, blood (20 μl) was taken respectively from orbits of mice on the 4th day, the 7th day, the 10th day, the 14th day and the 17th day, and was placed in a 3 ml centrifuge tube, and the blood routine examination was conducted using a blood cell automatic analyzer, wherein the main indexes related to myelosuppression are white blood cell counts (WBC), platelet counts (PLT), hemoglobin determination (HGB) and monocyte proportion (MO %).
# Animal model: ICR mice aged 4-5 weeks were selected and assigned randomly into 4 groups with 6 mice per group. […]
# [5] = system: ICR mice; experiment: Effects of Olive-C60 on relevant enzyme activities in the second course (serum); assay type: in vivo; settings: 18th day, Olive-C60 intragastrically with CTX, or CTX alone, versus blank control group
# Experimental: as §1, §2
# Effects of Olive-C60 on relevant enzyme activities in the second course on an intravital level: On the 18th day of the second course of the experiment, whole blood was taken from orbits, serums were obtained by centrifugation, and different relevant enzyme activities were tested.
# [6] = system: ICR mice; settings: first course
# Experimental: as §1, §3
# After ICR mice aged 4-5 weeks were bred in a laboratory, CTX solutions were injected on the seventh day when their conditions were stable, which was marked as the first day of the experiment. Intraperitoneal injection of CTX was conducted once a day for 5 consecutive days; meanwhile, Olive-C60 or Olive or the normal saline was administered intragastrically or intraperitoneally. 5 days later, no injection was made, and only observation or sampling was conducted.
# Effects of Olive-C60 on myelosuppression in the first course on an intravital level: blood (13 μl) was taken from orbits of mice on the 4th day, the 7th day, the 10th day and the 17th day respectively, and was placed in a 3 ml centrifuge tube, and the blood routine examination was conducted using a blood cell automatic analyzer, wherein the main indexes related to myelosuppression are white blood cell counts (WBC), platelet counts (PLT), red blood cell counts (RBC) and hemoglobin determination (HGB). Meanwhile, changes in the weight of mice were monitored.
# [7] = CTX 60 mg/kg i.p. x5 days alone
# [8] = 17th day, CTX alone or CTX+GFNC
smiles,measurement,setting,value
"O=P1(N(CCCl)CCCl)NCCCO1 (stereo not shown) [CTX, cyclophosphamide]",level of uric acid in the serum,[1],far lower than that in the serum of mice in the blank control group
same,white blood cells on the 17th day,"[2]; 17th day, CTX alone or with Olive-C60",still below their normal levels
same,"white blood cells, red blood cells, platelets and hemoglobin compared with the blank control group",[2]; [7],varying degrees of reduction
same,weight of mice,[2]; CTX alone or with Olive-C60,differs greatly from that of the mice in other groups
same,weight of mice,"[2]; CTX alone or with Olive-C60, listed as cyclophosphamide",lower than that of the mice in any other groups
same,histopathological sections of main tissues and organs (H&E staining),[3]; [8],damaged to a certain extent
same,pathological sections of tumor sites: cells of tumor tissues,[3]; [8],die in great quantity
same,weight of mice,[3]; CTX 60 mg/kg i.p. x5 days alone or with GFNC 0.04 mmol of Gd3+/kg intravenously,drops obviously in the initial stage of drug injection
same,monocytes,[4]; CTX 60 mg/kg i.p. x5 days alone or with 0.004 mmol/kg material intravenously x5 days,abnormal hyperplasia
same,"white blood cells, platelets and hemoglobin","[4]; H22 tumor mice, CTX 60 mg/kg i.p. x5 days alone (versus blank control) or with 0.004 mmol/kg material intravenously x5 days (versus CTX group)",varying degrees of reduction
same,level of MDA,[5],higher than that of mice in the blank control group
same,"white blood cells, red blood cells, platelets and hemoglobin compared with the blank control group",[6]; [7],varying degrees of reduction
same,weight of mice,"[6]; CTX 60 mg/kg i.p. x5 days, alone or with Olive-C60 100 μL (1,500 ppm), after termination of CTX injection / later stage",lower than that of the mice in any other groups
